These results are taken from patent US10221129B2, “Inhibitors of human immunodeficiency virus replication” (ViiV HEALTHCARE UK (NO.5) LIMITED, priority 2015, dated 2019).

What is called EC50 is the concentration needed to bring the measured effect to its halfway point. As usually defined, the CC50 is the concentration giving 50% cytotoxicity.

Data set [1] has as its system recombinant NL4-3 virus (nef section replaced with Renilla luciferase gene) in MT-2 cells. Put plainly: HIV cell culture assay (antiviral activity, luciferase readout). Type of data set: cell-based. As for the experimental part:
HIV cell culture assay—MT-2 cells, 293T cells and the proviral DNA clone of NL4-3 virus were obtained from the NIH AIDS Research and Reference Reagent Program. MT-2 cells were propagated in RPMI 1640 media supplemented with 10% heat inactivated fetal bovine serum (FBS), 100 jag/ml penicillin G and up to 100 units/mL streptomycin. The 293T cells were propagated in DMEM media supplemented with 10% heat inactivated FBS, 100 μg/mL penicillin G and 100 μg/mL streptomycin. A recombinant NL4-3 proviral clone, in which a section of the nef gene was replaced with the Renilla luciferase gene, was used to make the reference virus used in these studies. The recombinant virus was prepared through transfection of the recombinant NL4-3 proviral clone into 293T cells using Transit-293 Transfection Reagent from Mirus Bio LLC (Madison, Wis.). Supernatant was harvested after 2-3 days and the amount of virus present was titered in MT-2 cells using luciferase enzyme activity as a marker by measuring luciferase enzyme activity. Luciferase was quantitated using the EnduRen Live Cell Substrate from Promega (Madison, Wis.). Antiviral activities of compounds toward the recombinant virus were quantified by measuring luciferase activity in MT-2 cells infected for 4-5 days with the recombinant virus in the presence of serial dilutions of the compound.
(Johnson V A, Byington R T. Infectivity Assay. In Techniques in HIV Research. ed. Aldovini A, Walker B D. 71-76. New York: Stockton Press. 1990).

A short description of data set [2]: Compound cytotoxicity, XTT-based colorimetric assay. It counts as cell-based. To be noted: human, uninfected MT2 cells, day 4, XTT. As for the experimental part: Compound cytotoxicity and the corresponding CC50 values were determined using the same protocol as described in the antiviral assay except that uninfected cells were used. Cytotoxicity was assessed on day 4 in uninfected MT2 cells by using a XTT (2,3-bis[2-Methoxy-4-nitro-5-sulfophenyl]-2H-tetrazolium-5-carboxyanilide inner salt)-based colorimetric assay (Sigma-Aldrich, St Louis, Mo.).
A general note: Tetrazolium assays rely on reduction of a dye to a coloured formazan, in cell work by metabolically active cells.

The mark [3] stands for this setting: Renilla, NL43, MT-2 cells infected for 4-5 days with recombinant NL4-3 Renilla luciferase virus.
The mark [4] stands for this setting: MT-2 cells infected for 4-5 days with recombinant NL4-3 Renilla luciferase virus.

Each structure is given as a SMILES string. Where only a bound is given, the exact number is not on record here.

On to `CN(C(=O)[C@H](Cc1cc(F)cc(F)c1)NC(=O)NS(=O)(=O)N1CCc2cccnc21)c1cnc2scnc2c1` [GW-16], for which the EC50 in data set [1] (setting [3]) stood at 280 nM. The compound also returned a CC50 at 4 days in data set [2] of over 100 µM.
In the case of `CN(C(=O)[C@H](Cc1cc(F)cc(F)c1)NC(=O)NS(=O)(=O)NCc1ccccc1)c1ccc2scnc2c1` [CA-126], in data set [1] (setting [3]), the EC50 stood at 520 nM. For the same compound, the CC50 at 4 days in data set [2] is over 100 µM.
In the same order, the values of `Cc1ccc(N(C)C(=O)[C@H](Cc2cc(F)cc(F)c2)NC(=O)NS(=O)(=O)N2CCc3cccnc32)cn1` [GW-2] are 70 nM and over 100 µM.
In the same order, the values of `O=C(N[C@@H](Cc1cc(F)cc(F)c1)C(=O)N(CCOCc1ccccc1)c1ccc2scnc2c1)NS(=O)(=O)N1CCc2cccnc21` [BB-34] are 40 nM and 70.6 µM.
`COc1ccc(N(C)C(=O)[C@H](Cc2ccccc2)NC(=O)NS(=O)(=O)NCc2cnc3ccccc3c2)cc1` [JB-45]: in data set [1] (setting [3]), the EC50 amounted to 9450 nM. For the same compound, the CC50 at 4 days in data set [2] was over 50 µM.
Turning to `CC(=O)NCCNS(=O)(=O)NC(=O)N[C@@H](Cc1cc(F)cc(F)c1)C(=O)N(C)c1ccc2scnc2c1` [CA-137], the EC50 in data set [1] (setting [3]) came to 1220 nM. In addition, the CC50 at 4 days in data set [2] is over 100 µM.
`CCOc1ccc(N(CC)C(=O)[C@H](Cc2ccccc2)NC(=O)NS(=O)(=O)n2ccc3ccccc32)cc1` [JB-75]: the 50% effective concentration (EC50) in data set [1] (setting [3]) was found to be 70 nM. In data set [2], this compound registered a CC50 at 4 days of over 33.3 µM.
`CCc1ccc(N(C)C(=O)[C@H](Cc2cc(F)cc(F)c2)NC(=O)NS(=O)(=O)N2CCc3cccnc32)cn1` [GW-3]: in data set [1] (setting [3]), the EC50 came out at 20 nM. Further, in data set [2], the CC50 at 4 days was over 100 µM.
Taken in the same sequence, the figures for `CN(C(=O)[C@H](Cc1cc(F)cc(F)c1)NC(=O)NS(=O)(=O)N1CCCC1)c1ccc2scnc2c1` [VN-22] were 50 nM and over 100 µM.
In the case of `COc1ccc(N(C)C(=O)[C@H](Cc2ccccc2)NC(=O)NS(=O)(=O)Nc2cccc(C(N)=O)c2)cc1` [JB-61], in data set [1] (setting [3]), the EC50 was 4910 nM. Moreover, in data set [2], the CC50 at 4 days is over 100 µM.
In the same order, the values of `CN(C(=O)[C@H](Cc1cc(F)cc(F)c1)NC(=O)NS(=O)(=O)N(C)c1ccccn1)c1ccc2scnc2c1` [CA-113] are 140 nM and over 100 µM.
In the same order, the values of `COc1ccc(N(C)C(=O)[C@H](Cc2ccccc2)NC(=O)NS(=O)(=O)Nc2ccc(C(C)(C)C)cc2)cc1` [CA-20] are 40 nM and over 100 µM.
In the same order, the values of `COc1ccc(N(C)C(=O)[C@H](Cc2ccccc2)NC(=O)NS(=O)(=O)NCc2ccccn2)cc1` [JB-39] are 1380 nM and over 100 µM.
With `CC(C)CNS(=O)(=O)NC(=O)N[C@@H](Cc1cc(F)cc(F)c1)C(=O)N(C)c1ccc2scnc2c1` [CA-144], the EC50 in data set [1] (setting [3]) stood at 40 nM. In data set [2], this compound returned a CC50 at 4 days of over 100 µM.
For the compound `COc1ccc(N(C)S(=O)(=O)NC(=O)N[C@@H](Cc2cc(F)cc(F)c2)C(=O)N(C)c2ccc3scnc3c2)cn1` [CA-118], the EC50 in data set [1] (setting [3]) came to 160 nM. In data set [2], this compound gave a CC50 at 4 days of over 100 µM.
Taken in the same sequence, the figures for `COc1ccc(N(C)C(=O)[C@H](Cc2ccccc2)NC(=O)NS(=O)(=O)N2CCc3cc(OC)cc(C)c32)cc1` [CA-56] were 1310 nM and over 100 µM.
In the case of `COc1ccc(N(C)C(=O)[C@H](Cc2ccccc2)NC(=O)NS(=O)(=O)Nc2ccc(OC(F)(F)F)cc2)cc1` [CA-34], the EC50 in data set [1] (setting [3]) amounted to 180 nM. Moreover, the CC50 at 4 days in data set [2] is over 33.3 µM.
Take `CC1Cc2cccnc2N1S(=O)(=O)NC(=O)N[C@@H](Cc1cc(F)cc(F)c1)C(=O)N(C)c1ccc2scnc2c1` (single isomer, unassigned) [VN-6]: in data set [1] (setting [4]), the EC50 was found to be 20 nM. The compound further yielded a CC50 at 4 day in data set [2] of over 1000 nM.
Regarding `COCCNS(=O)(=O)NC(=O)N[C@@H](Cc1cc(F)cc(F)c1)C(=O)N(C)c1ccc2scnc2c1` [CA-153], the EC50 in data set [1] (setting [3]) was found to be 150 nM. In data set [2], this compound registered a 50% cytotoxic concentration (CC50) at 4 days of 9 µM.
Take `COc1ccc(N(C)C(=O)[C@H](Cc2cc(F)cc(F)c2)NC(=O)NS(=O)(=O)N2CCC[C@@H]2C(=O)N(C)C)cc1` [BB-27]: the EC50 in data set [1] (setting [3]) came out at 970 nM. The CC50 at 4 days in data set [2] is over 100 µM.
In the same order, the values of `COc1ccc(N(C)C(=O)[C@H](Cc2ccccc2)NC(=O)NS(=O)(=O)N(C)c2cccc(C)c2)cc1` [JB-25] are 80 nM and over 100 µM.
Taken in the same sequence, the figures for `COc1ccc(N(C)C(=O)[C@H](Cc2ccccc2)NC(=O)NS(=O)(=O)Nc2ccc(Cl)c(Cl)c2)cc1` [CA-12] were 90 nM and over 33.3 µM.
In the same order, the values of `COc1ccc(N(C)C(=O)[C@H](Cc2ccccc2)NC(=O)NS(=O)(=O)Nc2ccc(S(=O)(=O)N3CCOCC3)cc2)cc1` [CA-44] are 620 nM and over 100 µM.
Turning to `CN(C(=O)[C@H](Cc1cc(F)cc(F)c1)NC(=O)NS(=O)(=O)N1CCc2cccnc21)c1ccc(=O)n(C)c1` [BB-1], in data set [1] (setting [3]), the EC50 was found to be 11000 nM. The CC50 at 4 days in data set [2] is over 100 µM.
In the same order, the values of `CN(C(=O)[C@H](Cc1cc(F)cc(F)c1)NC(=O)NS(=O)(=O)N1CCc2cccnc21)c1ccc2c(c1)ncn2C` [GW-6] are 630 nM and over 25 µM.
In the same order, the values of `COc1ccc(N(C)C(=O)[C@H](Cc2ccccc2)NC(=O)NS(=O)(=O)Nc2cccc(OC(F)(F)F)c2)cc1` [CA-35] are 380 nM and 30.3 µM.
In the same order, the values of `COc1ccc(N(C)C(=O)[C@H](Cc2ccccc2)NC(=O)NS(=O)(=O)Nc2ccccc2C(N)=O)cc1` [CA-22] are 2510 nM and over 100 µM.
As to `CN(C)C(=O)C1Cc2cccnc2N1S(=O)(=O)NC(=O)N[C@@H](Cc1cc(F)cc(F)c1)C(=O)N(C)c1ccc2scnc2c1` (single isomer, unassigned) [BB-28], in data set [1] (setting [4]), the EC50 worked out at 6050 nM. Further, the CC50 at 4 days in data set [2] is over 100 µM.
Turning to `CN(C(=O)[C@H](Cc1cc(F)cc(F)c1)NC(=O)NS(=O)(=O)N1CCc2cccnc21)c1ccc2cncnc2c1` [BB-30], the EC50 in data set [1] (setting [3]) turned out to be 260 nM. The same compound yielded a CC50 at 4 days in data set [2] of over 100 µM.
For the compound `COc1ccc(N(C)C(=O)[C@H](Cc2ccccc2)NC(=O)NS(=O)(=O)N2CCc3ccccc3C2)cc1` [JB-7], the EC50 in data set [1] (setting [3]) worked out at 200 nM. The compound also yielded a CC50 at 4 days in data set [2] of over 100 µM.
In the same order, the values of `COc1ccc(N(C)C(=O)[C@H](Cc2ccccc2)NC(=O)NS(=O)(=O)N(C)c2ccc(Cl)cc2)cc1` [JB-35] are 80 nM and over 100 µM.
Taken in the same sequence, the figures for `COC1CN(S(=O)(=O)NC(=O)N[C@@H](Cc2cc(F)cc(F)c2)C(=O)N(C)c2ccc3scnc3c2)C1` [CA-128] were 100 nM and over 100 µM.
With `COc1ccc(N(C)C(=O)[C@H](Cc2ccccc2)NC(=O)NS(=O)(=O)Nc2ccc(NC(C)=O)cc2)cc1` [CA-17], in data set [1] (setting [3]), the EC50 is 1940 nM. Further, the CC50 at 4 days in data set [2] is over 100 µM.
In the same order, the values of `CN(C(=O)[C@H](Cc1cc(F)cc(F)c1)NC(=O)NS(=O)(=O)NCCO)c1ccc2scnc2c1` [CA-138] are 270 nM and over 100 µM.
In the same order, the values of `CN(C(=O)[C@H](Cc1cc(F)cc(F)c1)NC(=O)NS(=O)(=O)N1CCc2cccnc21)c1ccc(C(N)=O)cc1` [BB-5] are 4910 nM and over 100 µM.
In the same order, the values of `CCN(C)S(=O)(=O)NC(=O)N[C@@H](Cc1cc(F)cc(F)c1)C(=O)N(C)c1ccc2scnc2c1` [CA-154] are 30 nM and over 50 µM.
In the case of `CN(C(=O)[C@H](Cc1cc(F)cc(F)c1)NC(=O)NS(=O)(=O)N1CCCC1c1ccccc1)c1ccc2scnc2c1` (single isomer, unassigned) [VN-3], in data set [1] (setting [4]), the EC50 came out at 850 nM. Besides, half-maximal cytotoxicity in data set [2] (CC50 at 4 days) was put at 52.4 µM.
`COc1ccc(N(C)C(=O)[C@H](Cc2ccccc2)NC(=O)NS(=O)(=O)Nc2cccc(C(C)(C)C)c2)cc1` [CA-41]: the EC50 in data set [1] (setting [3]) is 260 nM. The same compound gave a CC50 at 4 days in data set [2] of over 33.3 µM.
Taken in the same sequence, the figures for `CCN(c1cccnc1)S(=O)(=O)NC(=O)N[C@@H](Cc1cc(F)cc(F)c1)C(=O)N(C)c1ccc2scnc2c1` [CA-121] were 990 nM and 7.3 µM.
In the same order, the values of `COc1ccc(N(C)C(=O)[C@H](Cc2ccccc2)NC(=O)NS(=O)(=O)Nc2ccc(F)c(F)c2)cc1` [JB-51] are 110 nM and over 100 µM.
As for `COc1ccc(N(C)C(=O)[C@H](Cc2ccccc2)NC(=O)NS(=O)(=O)Nc2cccc3ncccc23)cc1` [CA-8], the EC50 in data set [1] (setting [3]) was 590 nM. For the same compound, in data set [2], the cytotoxic concentration (CC50) at 4 days was over 100 µM.
In the same order, the values of `CN(C(=O)[C@H](Cc1cc(F)cc(F)c1)NC(=O)NS(=O)(=O)N1CCc2ccnnc21)c1ccc2scnc2c1` [VN-17] are 70 nM and over 100 µM.
In the same order, the values of `COc1ccc(N(C)C(=O)[C@H](Cc2ccccc2)NC(=O)NS(=O)(=O)Nc2cccc(Cl)c2)cc1` [JB-19] are 50 nM and over 100 µM.
